Columns and labels:
Staphylococcus aureus = assay: Minimum inhibitory concentration and synergistic effect (Kull) against Staphylococcus aureus; format: cell-based; settings: for QA (minimum inhibitory concentration of the pure substance A): pure sorbitan monocaprylate
Source text: (§1) Calculation of the synergistic effect according to the formula Qa/QA+Qb/QB=SE (synergistic effect, according to F. C. Kull et al., Applied Microbiology 1961, 9, 538), where Qa=minimum inhibitory concentration of the compound A in % in the mixture used, QA=minimum inhibitory concentration of the pure substance A, Qb=minimum inhibitory concentration of the compound B in % in the mixture used, and QB=minimum inhibitory concentration of the pure substance B.
(§2) Evaluation of the synergistic effect: where an SE>1 is obtained, there is an antagonistic effect; if SE=1, then the compounds are neutral in their behavior toward one another, and if SE<1, there is a synergistic effect.
(§3) Mixtures of sorbitan monocaprylate and phenoxyethanol or benzyl alcohol, in accordance with Examples 1) and 2), were investigated. The results with respect to synergism are set out in Tables A and B. “MIC blend” here is the minimum inhibitory concentration of the respective blend.

Aspergillus brasiliensis = assay: Minimum inhibitory concentration and synergistic effect (Kull) against Aspergillus brasiliensis; format: cell-based; settings: for QA (minimum inhibitory concentration of the pure substance A): pure sorbitan monocaprylate
Source text: as §1, §2, §3

[1] = Table A, sorbitan monocaprylate in 50:50 blend with phenoxyethanol
[2] = Table B, sorbitan monocaprylate in 50:50 blend with benzyl alcohol

Substance: sorbitan monocaprylate
- QA (minimum inhibitory concentration of the pure substance A) (Staphylococcus aureus; Table A): 0.25%
- Qa (minimum inhibitory concentration of compound A in the mixture used) (Staphylococcus aureus; [1]): 0.0315%
- QA (minimum inhibitory concentration of the pure substance A) (Staphylococcus aureus; Table B): 0.25%
- Qa (minimum inhibitory concentration of compound A in the mixture used) (Staphylococcus aureus; [2]): 0.016%
- QA (minimum inhibitory concentration of the pure substance A) (Aspergillus brasiliensis; Table A): 0.016%
- Qa (minimum inhibitory concentration of compound A in the mixture used) (Aspergillus brasiliensis; [1]): 0.004%
- QA (minimum inhibitory concentration of the pure substance A) (Aspergillus brasiliensis; Table B): 0.016%
- Qa (minimum inhibitory concentration of compound A in the mixture used) (Aspergillus brasiliensis; [2]): 0.004%

Reference: patent US9596849B2, “Composition containing sorbitan monocaprylate and alcohol” (Clariant International Ltd., priority 2009, dated 2017)
